Laboratory results published in patent publication US7098364B2, “Phenylethanolamine compounds as β2-receptor agonists, and methods of use and preparation thereof” (Shenyang Pharmaceutical University, priority 2001, dated 2006).

Tested on: isolated guinea pig trachea strips
Assay: Antagonistic effect on histamine-induced bronchoconstriction in isolated guinea pig trachea strips
Assay type: cell-based
Conditions: trachea strips contracted by histamine (10^-6-10^-4 M) to 50% of maximum contraction; compounds at 10^-6 or 3×10^-4 M; Krebs-Hensleit solution, 37° C.
Description: The antagonistic effects of bronchoconstrtriction induced by histamine of the compounds of the present invention were evaluated by isolated guinea pig trachea strips.
Apparatus: polygrapher recorder, strain gauge transducer
Conditions: Krebs-Hensleit solution; gas mixture(95% O2, 5% CO2); Paper speed: 4 mm/min; 37° C.
Animals: guinea pigs (Harley, purchased from the Experimental Animal Center of China Medical University) of either sex weighting 350–500 g were used.
Reagent: Histamines phosphate solution(10^−6–10^−4M)
Method: Guinea pigs were sacrificed and the trachea strips(2 cm×3 mm) were prepared; the preparation was then mounted under a testing tension of 2 g in an organ bath containing 10 mL Kebs-Hensleits solution at 37° C. and superfused with the gas mixture mentioned above and the preparation was allowed to equilibrate for 2 h before the addition of histamine. When the tension of trachea strips reached 50% of the maximum contraction, the tested compounds was added to bath, and the antagonistic effect (represented as relaxing rate) was calculated as below: Relaxing rate=(Contraction intensity after histamine addition-Contraction intensity after tested compounds addition)/[…]×100%

CC(C)NC(CO)c1cc(Cl)c(N)c(C(F)(F)F)c1.Cl (stereo not drawn)
Relaxing rate (%): 52.5%

Cl.Nc1c(Br)cc(C(CO)NC2CC2)cc1C(F)(F)F (stereo not drawn)
Relaxing rate (%): 10.2%

Cl.N#Cc1cc(C(CO)NC2CCC2)cc(Cl)c1N (stereo not drawn)
Relaxing rate (%): 36.7%

CC(C)NC(CO)c1cc(Br)c(N)c(C#N)c1.Cl (stereo not drawn)
Relaxing rate (%): 77.6%

Cl.Cl.N#Cc1cc(C(CO)NC2CCC2)cc(Br)c1N (stereo not drawn)
Relaxing rate (%): 30.8%

Cl.N#Cc1cc(C(CO)NC2CCC2)ccc1N (stereo not drawn)
Relaxing rate (%): 18.9%

CC(C)NC(CO)c1ccc(N)c(C#N)c1.Cl (stereo not drawn)
Relaxing rate (%): 60.3%

Cl.Nc1c(Br)cc(C(CO)NC2CCC2)cc1C(F)(F)F (stereo not drawn)
Relaxing rate (%): 12.9%

CC(C)(CO)NC(CO)c1cc(Cl)c(N)c(C(F)(F)F)c1.Cl (stereo not drawn)
Relaxing rate (%): 85.1%

CC(C)(CO)NC(CO)c1cc(Br)c(N)c(C(F)(F)F)c1.Cl (stereo not drawn)
Relaxing rate (%): 128.2%

CC(C)(CO)NC(CO)c1cc(Cl)c(N)c(C#N)c1.Cl.Cl (stereo not drawn)
Relaxing rate (%): 15.3%

CC(C)(C)NC(CO)c1ccc(N)c(C(F)(F)F)c1.Cl (stereo not drawn)
Relaxing rate (%): 55.6%

Cl.Cl.N#Cc1cc(C(CO)NC2CC2)ccc1N (stereo not drawn)
Relaxing rate (%): 15.7%

CC(C)(CO)NC(CO)c1cc(Br)c(N)c(C#N)c1.Cl (stereo not drawn)
Relaxing rate (%): 89.6%

CC(C)(CO)NC(CO)c1ccc(N)c(C#N)c1.Cl (stereo not drawn)
Relaxing rate (%): 65.3%

Br.CC(C)(C)NC(CO)c1cc(Cl)c(N)c(C(F)(F)F)c1 (stereo not drawn)
Relaxing rate (%): 165.9%

CC(C)NC(CO)c1cc(Cl)c(N)c(C#N)c1.Cl.Cl (stereo not drawn) [drawing 7]
Relaxing rate (%): 69.2%

CC(C)NC(CO)c1cc(Cl)c(N)c(C#N)c1.Cl.Cl (stereo not drawn) [drawing 20]
Relaxing rate (%): 70.5%
